Reference: ChEMBL document CHEMBL3882729, “Receptor-type kinase modulators and methods of use” (2009)

Assays:
Ephrin type-A receptor 2 = Ephrin type-A receptor 2 (Homo sapiens, UniProt P29317); test: Inhibition of recombinant human N-terminal His6-tagged EphA2 (N598 to R890 residues) expressed in baculovirus using poly-EY as substrate after 180 mins by luciferase coupled chemiluminescence assay
[1] = molecular target: Vascular endothelial growth factor receptor 1 (Homo sapiens, UniProt P17948); test: Inhibition of recombinant human N-terminal GST-tagged factor 10a cleavage site-fused Flt1 (K784 to I1338 residues) expressed in baculovirus infected insect Sf9 cells using poly-EY as substrate after 120 mins in presence of gamma33P-ATP by liquid scintillation spectrometry
Sequence of Vascular endothelial growth factor receptor 1 (P17948 whole entry, the tested form may be a part): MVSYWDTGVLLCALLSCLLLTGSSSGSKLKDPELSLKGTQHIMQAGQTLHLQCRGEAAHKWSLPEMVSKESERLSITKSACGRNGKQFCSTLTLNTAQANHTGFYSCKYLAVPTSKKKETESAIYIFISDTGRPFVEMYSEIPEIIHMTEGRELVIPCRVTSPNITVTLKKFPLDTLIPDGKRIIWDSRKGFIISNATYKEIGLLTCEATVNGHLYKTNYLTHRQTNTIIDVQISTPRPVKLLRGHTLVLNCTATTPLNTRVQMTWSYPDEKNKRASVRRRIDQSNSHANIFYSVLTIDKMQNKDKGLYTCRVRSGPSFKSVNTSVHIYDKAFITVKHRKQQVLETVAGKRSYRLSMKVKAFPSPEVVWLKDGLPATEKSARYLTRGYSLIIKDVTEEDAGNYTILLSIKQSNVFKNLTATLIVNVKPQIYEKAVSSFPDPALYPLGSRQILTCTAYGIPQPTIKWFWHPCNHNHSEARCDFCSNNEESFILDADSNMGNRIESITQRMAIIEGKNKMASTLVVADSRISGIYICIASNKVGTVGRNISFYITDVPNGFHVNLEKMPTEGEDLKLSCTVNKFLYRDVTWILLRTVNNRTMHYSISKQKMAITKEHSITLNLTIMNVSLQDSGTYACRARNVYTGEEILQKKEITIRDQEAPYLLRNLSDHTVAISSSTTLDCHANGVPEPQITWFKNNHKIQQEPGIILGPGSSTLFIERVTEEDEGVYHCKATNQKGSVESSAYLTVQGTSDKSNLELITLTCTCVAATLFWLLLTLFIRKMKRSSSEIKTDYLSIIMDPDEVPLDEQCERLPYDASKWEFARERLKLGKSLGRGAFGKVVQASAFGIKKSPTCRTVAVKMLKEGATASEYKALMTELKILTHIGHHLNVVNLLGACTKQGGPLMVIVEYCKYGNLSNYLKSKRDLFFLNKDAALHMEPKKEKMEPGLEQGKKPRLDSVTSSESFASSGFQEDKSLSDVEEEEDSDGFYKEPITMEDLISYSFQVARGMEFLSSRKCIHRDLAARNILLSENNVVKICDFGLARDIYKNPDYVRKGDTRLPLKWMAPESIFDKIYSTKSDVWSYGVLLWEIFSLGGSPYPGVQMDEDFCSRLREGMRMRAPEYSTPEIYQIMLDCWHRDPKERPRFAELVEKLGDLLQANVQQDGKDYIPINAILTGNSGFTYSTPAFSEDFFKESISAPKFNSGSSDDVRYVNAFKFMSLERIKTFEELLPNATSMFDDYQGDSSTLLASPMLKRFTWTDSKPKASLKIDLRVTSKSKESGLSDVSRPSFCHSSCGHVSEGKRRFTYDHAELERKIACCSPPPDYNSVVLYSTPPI

[2] = molecular target: Vascular endothelial growth factor receptor 2 (Homo sapiens, UniProt P35968); test: Inhibition of recombinant human N-terminal GST-fused KDR (D807 to V1356 residues) expressed in baculovirus infected […] insect Sf9 cells using poly-EY as substrate after 240 mins by luciferase coupled chemiluminescence assay
Sequence of Vascular endothelial growth factor receptor 2 (P35968 whole entry, the tested form may be a part): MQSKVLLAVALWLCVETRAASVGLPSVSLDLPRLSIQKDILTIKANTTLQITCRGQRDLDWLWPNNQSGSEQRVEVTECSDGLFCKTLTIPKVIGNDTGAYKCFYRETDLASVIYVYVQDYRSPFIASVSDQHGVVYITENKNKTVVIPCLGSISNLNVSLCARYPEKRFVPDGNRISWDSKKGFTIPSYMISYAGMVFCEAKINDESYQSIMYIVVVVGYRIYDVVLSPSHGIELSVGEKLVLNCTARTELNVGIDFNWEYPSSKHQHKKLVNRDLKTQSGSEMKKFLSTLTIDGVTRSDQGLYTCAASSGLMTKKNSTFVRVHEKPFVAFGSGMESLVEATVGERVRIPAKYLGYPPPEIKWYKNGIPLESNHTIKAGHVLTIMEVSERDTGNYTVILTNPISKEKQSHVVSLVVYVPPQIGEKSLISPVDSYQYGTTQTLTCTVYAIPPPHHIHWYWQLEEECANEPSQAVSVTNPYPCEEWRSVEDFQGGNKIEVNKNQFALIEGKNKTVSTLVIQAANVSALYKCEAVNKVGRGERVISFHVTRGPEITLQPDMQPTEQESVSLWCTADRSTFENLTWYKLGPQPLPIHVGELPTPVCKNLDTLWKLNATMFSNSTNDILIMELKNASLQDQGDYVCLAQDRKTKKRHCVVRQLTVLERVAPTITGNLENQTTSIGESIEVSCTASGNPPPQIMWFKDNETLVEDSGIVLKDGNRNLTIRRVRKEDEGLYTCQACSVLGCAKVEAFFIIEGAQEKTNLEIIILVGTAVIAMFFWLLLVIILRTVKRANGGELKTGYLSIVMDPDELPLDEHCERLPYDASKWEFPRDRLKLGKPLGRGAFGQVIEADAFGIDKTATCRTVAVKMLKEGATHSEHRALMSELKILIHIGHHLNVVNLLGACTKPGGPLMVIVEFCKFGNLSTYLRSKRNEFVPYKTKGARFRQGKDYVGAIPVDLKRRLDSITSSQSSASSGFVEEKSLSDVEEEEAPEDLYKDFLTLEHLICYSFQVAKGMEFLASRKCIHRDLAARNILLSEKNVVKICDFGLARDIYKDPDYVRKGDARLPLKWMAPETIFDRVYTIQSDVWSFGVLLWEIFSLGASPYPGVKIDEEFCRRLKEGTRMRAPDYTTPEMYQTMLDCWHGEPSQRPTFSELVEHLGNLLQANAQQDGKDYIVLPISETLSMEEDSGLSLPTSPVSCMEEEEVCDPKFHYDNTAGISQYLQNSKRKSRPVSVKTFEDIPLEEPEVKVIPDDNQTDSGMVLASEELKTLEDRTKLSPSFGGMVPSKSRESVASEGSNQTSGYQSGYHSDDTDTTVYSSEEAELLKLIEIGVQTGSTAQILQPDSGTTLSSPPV

[3] = molecular target: Receptor tyrosine-protein kinase erbB-2 (Homo sapiens, UniProt P04626); test: Inhibition of recombinant human N-terminal GST His6-tagged thrombin cleavage site-fused ErbB2 kinase domain (Q679 to V1255 residues) expressed in baculovirus infected insect Sf9 cells using biotinylated poly-EY as substrate after 60 mins by alphascreen assay
Sequence of Receptor tyrosine-protein kinase erbB-2 (P04626 whole entry, the tested form may be a part): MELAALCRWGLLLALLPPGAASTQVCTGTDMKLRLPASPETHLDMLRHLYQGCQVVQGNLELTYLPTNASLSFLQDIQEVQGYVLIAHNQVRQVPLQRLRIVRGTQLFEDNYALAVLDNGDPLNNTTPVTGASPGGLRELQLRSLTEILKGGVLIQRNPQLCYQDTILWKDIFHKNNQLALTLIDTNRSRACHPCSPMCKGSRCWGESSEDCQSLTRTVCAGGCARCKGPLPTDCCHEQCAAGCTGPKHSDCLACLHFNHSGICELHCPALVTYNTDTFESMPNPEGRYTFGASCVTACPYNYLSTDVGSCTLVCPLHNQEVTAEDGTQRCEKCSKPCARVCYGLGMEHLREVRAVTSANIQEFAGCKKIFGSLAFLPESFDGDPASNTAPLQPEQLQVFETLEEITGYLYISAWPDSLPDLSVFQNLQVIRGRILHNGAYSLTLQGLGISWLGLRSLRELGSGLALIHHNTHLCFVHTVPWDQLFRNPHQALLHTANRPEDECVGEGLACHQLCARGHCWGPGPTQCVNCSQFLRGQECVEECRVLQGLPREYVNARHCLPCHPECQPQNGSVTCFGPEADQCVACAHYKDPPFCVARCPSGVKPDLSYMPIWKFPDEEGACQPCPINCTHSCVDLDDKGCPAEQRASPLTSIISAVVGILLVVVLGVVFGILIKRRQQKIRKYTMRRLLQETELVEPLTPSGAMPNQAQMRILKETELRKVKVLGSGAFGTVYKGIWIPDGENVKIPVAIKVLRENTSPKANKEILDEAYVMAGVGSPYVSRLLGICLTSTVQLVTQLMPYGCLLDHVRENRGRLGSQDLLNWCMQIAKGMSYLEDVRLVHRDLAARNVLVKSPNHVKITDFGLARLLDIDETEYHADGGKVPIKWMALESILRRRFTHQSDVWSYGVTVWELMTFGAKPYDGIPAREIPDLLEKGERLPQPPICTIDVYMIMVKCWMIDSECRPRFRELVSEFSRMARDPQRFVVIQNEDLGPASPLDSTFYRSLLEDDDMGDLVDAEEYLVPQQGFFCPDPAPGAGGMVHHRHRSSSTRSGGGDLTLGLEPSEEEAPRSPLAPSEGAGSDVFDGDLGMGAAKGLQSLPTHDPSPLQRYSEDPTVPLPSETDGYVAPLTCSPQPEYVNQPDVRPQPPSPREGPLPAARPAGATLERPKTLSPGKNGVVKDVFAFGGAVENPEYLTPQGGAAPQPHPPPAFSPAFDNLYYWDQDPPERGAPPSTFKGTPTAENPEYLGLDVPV

Ephrin type-B receptor 4 = molecular target: T1, Ephrin type-B receptor 4 (Homo sapiens, UniProt P54760); test: Inhibition of recombinant human N-terminal His6-tagged EphB4 kinase domain (E605 to E890 residues) expressed in baculovirus using poly-AEKY as substrate after 150 mins in presence of gamma33P-ATP by liquid scintillation spectrometry
T1 sequence (P54760 whole entry): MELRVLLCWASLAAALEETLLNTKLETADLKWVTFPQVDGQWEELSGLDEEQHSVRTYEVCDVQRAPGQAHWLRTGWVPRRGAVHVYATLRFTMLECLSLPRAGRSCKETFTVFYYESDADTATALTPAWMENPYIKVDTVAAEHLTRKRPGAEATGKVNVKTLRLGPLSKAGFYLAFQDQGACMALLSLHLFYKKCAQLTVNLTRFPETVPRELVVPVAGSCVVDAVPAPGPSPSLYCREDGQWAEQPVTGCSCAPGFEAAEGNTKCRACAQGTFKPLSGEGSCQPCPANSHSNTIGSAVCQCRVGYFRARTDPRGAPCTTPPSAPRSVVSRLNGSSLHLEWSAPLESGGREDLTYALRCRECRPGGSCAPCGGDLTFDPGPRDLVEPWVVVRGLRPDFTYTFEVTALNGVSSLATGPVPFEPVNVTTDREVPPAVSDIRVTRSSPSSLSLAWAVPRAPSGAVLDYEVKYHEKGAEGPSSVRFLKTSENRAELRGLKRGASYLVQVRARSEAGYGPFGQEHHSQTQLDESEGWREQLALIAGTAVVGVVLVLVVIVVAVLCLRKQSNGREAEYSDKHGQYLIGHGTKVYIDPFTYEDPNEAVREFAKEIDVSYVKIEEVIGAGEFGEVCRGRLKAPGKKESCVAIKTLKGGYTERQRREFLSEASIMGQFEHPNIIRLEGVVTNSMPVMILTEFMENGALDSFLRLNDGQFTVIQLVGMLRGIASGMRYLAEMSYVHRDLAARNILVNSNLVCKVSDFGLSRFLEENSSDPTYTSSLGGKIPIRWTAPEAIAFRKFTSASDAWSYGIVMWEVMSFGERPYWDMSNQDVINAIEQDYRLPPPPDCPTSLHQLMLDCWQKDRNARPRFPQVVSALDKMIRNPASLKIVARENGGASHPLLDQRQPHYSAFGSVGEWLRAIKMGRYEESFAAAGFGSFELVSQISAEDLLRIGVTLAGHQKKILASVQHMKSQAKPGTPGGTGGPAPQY

Sequence of Ephrin type-A receptor 2 (P29317 whole entry, the tested form may be a part): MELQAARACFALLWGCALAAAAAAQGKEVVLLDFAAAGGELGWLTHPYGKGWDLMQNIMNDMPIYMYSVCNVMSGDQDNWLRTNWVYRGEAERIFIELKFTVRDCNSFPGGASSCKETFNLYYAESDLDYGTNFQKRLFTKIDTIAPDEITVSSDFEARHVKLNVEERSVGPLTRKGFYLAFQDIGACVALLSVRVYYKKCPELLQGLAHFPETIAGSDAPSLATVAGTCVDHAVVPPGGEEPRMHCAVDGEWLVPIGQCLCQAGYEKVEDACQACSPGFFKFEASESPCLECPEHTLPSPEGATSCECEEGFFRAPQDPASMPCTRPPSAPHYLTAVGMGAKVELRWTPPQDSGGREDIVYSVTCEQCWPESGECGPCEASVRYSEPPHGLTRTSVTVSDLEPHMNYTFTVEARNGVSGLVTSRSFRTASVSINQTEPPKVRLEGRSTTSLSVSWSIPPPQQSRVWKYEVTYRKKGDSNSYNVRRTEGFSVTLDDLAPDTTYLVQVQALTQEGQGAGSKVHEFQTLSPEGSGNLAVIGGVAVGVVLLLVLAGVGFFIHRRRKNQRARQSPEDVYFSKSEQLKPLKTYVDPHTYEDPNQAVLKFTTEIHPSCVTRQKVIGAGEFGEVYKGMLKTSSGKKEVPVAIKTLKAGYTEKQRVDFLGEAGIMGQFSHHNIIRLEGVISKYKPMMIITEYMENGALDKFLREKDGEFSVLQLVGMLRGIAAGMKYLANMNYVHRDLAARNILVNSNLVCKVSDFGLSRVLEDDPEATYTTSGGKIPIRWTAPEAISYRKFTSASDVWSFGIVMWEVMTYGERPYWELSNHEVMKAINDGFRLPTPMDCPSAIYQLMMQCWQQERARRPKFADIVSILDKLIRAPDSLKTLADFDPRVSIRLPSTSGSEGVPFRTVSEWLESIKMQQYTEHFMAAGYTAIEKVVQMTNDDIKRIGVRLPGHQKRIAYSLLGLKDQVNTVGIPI

SMILES | IC50 (Ephrin type-A receptor 2) [µM] | IC50 [1] [µM] | IC50 [2] [µM] | IC50 [3] [µM] | IC50 (Ephrin type-B receptor 4) [µM]
COc1cc2c(Nc3ccc(Cl)c(Cl)c3)ncnc2cc1OCC1CN2CSC[C@H]2CO1 (stereo not given in full) | 0.05 to 1 | 0.05 to 1 | 0.05 to 1 | – | –
COc1cc2c(Nc3ccc(Cl)c(Cl)c3F)ncnc2cc1OC[C@@H]1C[C@@H]2CN(C)C[C@@H]2C1 [TESEVATINIB] | < 0.05 | 0.05 to 1 | < 0.05 | < 0.05 | < 0.05
COc1cc2c(Nc3ccc(Cl)c(Cl)c3F)ncnc2cc1OC[C@@H]1CN2CCC[C@@H]2C(=O)N1 | < 0.05 | 0.05 to 1 | < 0.05 | – | –
COc1cc2c(Nc3ccc(Cl)c(Cl)c3F)ncnc2cc1OC[C@@H]1CN2CCC[C@H]2C(=O)N1 | 0.05 to 1 | 0.05 to 1 | < 0.05 | – | –
COc1cc2c(Nc3ccc(Br)c(Cl)c3)ncnc2cc1O[C@H]1CO[C@H]2[C@@H]1OC[C@@H]2N | 1 to 20 | – | 1 to 20 | 1 to 20 | 0.05 to 1
CCNC(=NC#N)N1CCOC(COc2cc3ncnc(Nc4ccc(Cl)c(Cl)c4)c3cc2OC)C1 (stereo not given) | 0.05 to 1 | – | 0.05 to 1 | < 0.05 | < 0.05
COc1cc2c(Nc3ccc(Br)c(Cl)c3)ncnc2cc1O[C@@H]1CO[C@H]2[C@@H]1OC[C@@H]2O | 1 to 20 | – | 1 to 20 | 0.05 to 1 | 0.05 to 1
COc1cc2c(Nc3ccc(Cl)c(Cl)c3)ncnc2cc1OCC1CN(/C(=N/C#N)N2CCCC2)CCO1 (stereo not given) | < 0.05 | – | 0.05 to 1 | < 0.05 | < 0.05
CCOc1cc2c(Nc3ccc(Cl)c(Cl)c3)ncnc2cc1OCC1CN(C)CCO1 (stereo not given) | < 0.05 | – | < 0.05 | < 0.05 | < 0.05
COc1cc2c(Nc3ccc(Br)c(Cl)c3F)ncnc2cc1OCC1CN(C)CCO1 (stereo not given) | < 0.05 | – | < 0.05 | < 0.05 | < 0.05
COc1cc2c(Nc3ccc(Br)c(Cl)c3F)ncnc2cc1OC[C@@H]1CN(C)CC(=O)N1 | 0.05 to 1 | – | 0.05 to 1 | 0.05 to 1 | 0.05 to 1
COc1cc2c(Nc3ccc(C)c(Cl)c3Cl)ncnc2cc1OCC1CN(C)CCO1 (stereo not given) | 0.05 to 1 | – | < 0.05 | 1 to 20 | 0.05 to 1
COc1cc2c(Nc3ccc(Br)c(Cl)c3)ncnc2cc1O[C@H]1CO[C@H]2[C@@H]1OC[C@@H]2N1CCCC1 | 1 to 20 | – | 1 to 20 | 1 to 20 | 0.05 to 1
COc1cc2c(Nc3ccc(Cl)c(Cl)c3N3CCN(C)CC3)ncnc2cc1O[C@H]1CO[C@H]2[C@@H]1OC[C@@H]2F | 1 to 20 | – | 1 to 20 | 1 to 20 | 1 to 20
CN[C@H]1CO[C@H]2[C@@H]1OC[C@@H]2Oc1cc2ncnc(Nc3ccc(Br)c(Cl)c3)c2cc1OC | 1 to 20 | – | 1 to 20 | 1 to 20 | 0.05 to 1
COc1cc2c(Nc3ccc(Cl)c(Cl)c3)ncnc2cc1OCc1nc2c(s1)CN(C)CC2 | 0.05 to 1 | – | 0.05 to 1 | < 0.05 | < 0.05
CCC(=O)N1CCOC(COc2cc3ncnc(Nc4ccc(Cl)c(Cl)c4)c3cc2OC)C1 (stereo not given) | 0.05 to 1 | – | 0.05 to 1 | < 0.05 | < 0.05
COc1cc2c(Nc3ccc(Cl)c(Cl)c3F)ncnc2cc1OCC1CN(C)CCO1 (stereo not given) | < 0.05 | – | < 0.05 | < 0.05 | < 0.05
COc1cc2c(Nc3ccc(N4CCN(C)CC4)c(Cl)c3Cl)ncnc2cc1O[C@H]1CO[C@H]2[C@@H]1OC[C@@H]2F | 1 to 20 | – | 1 to 20 | 1 to 20 | 1 to 20
COc1cc2c(Nc3ccc(Br)c(C)c3)ncnc2cc1OCC1CN(C)CCO1 (stereo not given) | 0.05 to 1 | – | 0.05 to 1 | 0.05 to 1 | 0.05 to 1
COc1cc2c(Nc3ccc(Br)c(Cl)c3)ncnc2cc1O[C@H]1CO[C@H]2[C@@H]1OC[C@@H]2S(C)(=O)=O | 1 to 20 | – | 1 to 20 | 0.05 to 1 | 0.05 to 1

SMILES | IC50 (Ephrin type-A receptor 2) [µM] | IC50 [1] [µM] | IC50 [2] [µM] | IC50 [3] [µM] | IC50 (Ephrin type-B receptor 4) [µM]
COc1cc2c(Nc3ccc(Br)c(F)c3F)ncnc2cc1OCC1CN(C)CCO1 (stereo not given) | 0.05 to 1 | – | < 0.05 | 0.05 to 1 | 0.05 to 1
CC(C)Oc1cc2c(Nc3ccc(Cl)c(Cl)c3)ncnc2cc1OCC1CN(C)CCO1 (stereo not given) | < 0.05 | – | < 0.05 | < 0.05 | < 0.05
COc1cc2c(Nc3ccc(Br)c(Cl)c3Cl)ncnc2cc1OC[C@@H]1CO[C@H]2[C@@H]1OC[C@@H]2OC | – | 1 to 20 | – | 1 to 20 | –
COc1cc2c(Nc3ccc(Cl)c(Cl)c3)ncnc2cc1OCC1CN(C(=O)c2c(C)noc2C)CCO1 (stereo not given) | 0.05 to 1 | – | 0.05 to 1 | < 0.05 | < 0.05
COc1cc2c(Nc3cccc(Cl)c3F)ncnc2cc1OCC1CN(/C(N)=N/C#N)CCCO1 (stereo not given) | 0.05 to 1 | – | 0.05 to 1 | < 0.05 | < 0.05
COc1cc2c(Nc3cc(F)c(Br)cc3F)ncnc2cc1OCC1CN(C)CCO1 (stereo not given) | 0.05 to 1 | – | < 0.05 | 0.05 to 1 | 0.05 to 1
COc1cc2c(Nc3ccc(F)c(Cl)c3F)ncnc2cc1OCC1CN(C)CCO1 (stereo not given) | < 0.05 | – | < 0.05 | < 0.05 | < 0.05
COc1cc2c(Nc3ccc(Br)c(Cl)c3)ncnc2cc1O[C@H]1CO[C@H]2[C@@H]1OC[C@@H]2NC(C)=O | 1 to 20 | – | 1 to 20 | 1 to 20 | 0.05 to 1
COc1cc2c(Nc3ccc(Cl)c(Cl)c3Cl)ncnc2cc1OCC1CN(C)CCO1 (stereo not given) | < 0.05 | – | < 0.05 | 0.05 to 1 | < 0.05
COc1cc2c(Nc3ccc(Cl)c(Cl)c3F)ncnc2cc1OCC1CN(C)C(C)(C)CO1 (stereo not given) | < 0.05 | – | < 0.05 | < 0.05 | < 0.05
COc1cc2c(Nc3ccc(Cl)c(Cl)c3)ncnc2cc1OCCC1CN(C)CC(C)(C)O1 (stereo not given) | 1 to 20 | – | 0.05 to 1 | 0.05 to 1 | 0.05 to 1
COc1cc2c(Nc3ccc(Br)c(Cl)c3)ncnc2cc1O[C@H]1CO[C@H]2[C@@H]1OC[C@@H]2SC | 1 to 20 | – | 1 to 20 | 1 to 20 | 0.05 to 1
COc1cc2c(Nc3ccc(Br)c(Cl)c3)ncnc2cc1O[C@H]1CO[C@H]2[C@@H]1OC[C@@H]2N1CCN(C)CC1 | 1 to 20 | – | 1 to 20 | 1 to 20 | 0.05 to 1
COc1cc2c(Nc3ccc(Br)c(Cl)c3)ncnc2cc1OC1CCN(C)C1 (stereo not given) | 1 to 20 | – | 0.05 to 1 | 1 to 20 | 0.05 to 1
CN/C(=N\C#N)N1CCOC(COc2cc3ncnc(Nc4ccc(Cl)c(C)c4)c3cc2OC)C1 (stereo not given) | 0.05 to 1 | – | 0.05 to 1 | < 0.05 | < 0.05
COc1cc2c(Nc3ccc(Cl)c(Cl)c3)ncnc2cc1OCC1CN(C)C(C)(C)C(=O)O1 (stereo not given) | 0.05 to 1 | – | 0.05 to 1 | 0.05 to 1 | < 0.05
COc1cc2c(Nc3ccc(Cl)c(Cl)c3)ncnc2cc1OCC1CN(C(N)=NC#N)CCO1 (stereo not given) | < 0.05 | – | < 0.05 | < 0.05 | < 0.05
CCN(CC)[C@H]1CO[C@H]2[C@@H]1OC[C@@H]2Oc1cc2ncnc(Nc3ccc(Br)c(Cl)c3)c2cc1OC | 1 to 20 | – | 0.05 to 1 | 1 to 20 | 0.05 to 1
COc1cc2c(Nc3ccc(Cl)c(Cl)c3)ncnc2cc1OCCC1CNC(C)(C)CO1 (stereo not given) | 0.05 to 1 | – | 0.05 to 1 | 0.05 to 1 | 0.05 to 1
COc1cc2c(Nc3ccc(Br)c(Cl)c3)ncnc2cc1O[C@@H]1CO[C@H]2[C@@H]1OC[C@@H]2OS(C)(=O)=O | 1 to 20 | – | 1 to 20 | 1 to 20 | 1 to 20
